Reference: patent US6593326B1, “2,4-diamino pyrimidine compounds having anti-cell proliferative activity” (AstraZeneca AB, priority 1998, dated 2003)
pIC50: −log10 of the molar value.

Columns and labels:
CDK4/Cyclin D1 = molecular target: T1, CDK4/Cyclin D1 (Homo sapiens, UniProt P11802); experiment: CDK4 Inhibition Assay (Scintillation Proximity Assay, GST-Retinoblastoma substrate); type: biochemical; settings: in vitro kinase assay; read-out: CDK4 inhibitory activity IC50
T1 construct: made in house; host or cells: Sf21 insect cells (baculovirus co-infection, pVL1393); the substrate was made in E. coli BL21 (DE3) pLysS
T1 sequence (P11802 whole entry): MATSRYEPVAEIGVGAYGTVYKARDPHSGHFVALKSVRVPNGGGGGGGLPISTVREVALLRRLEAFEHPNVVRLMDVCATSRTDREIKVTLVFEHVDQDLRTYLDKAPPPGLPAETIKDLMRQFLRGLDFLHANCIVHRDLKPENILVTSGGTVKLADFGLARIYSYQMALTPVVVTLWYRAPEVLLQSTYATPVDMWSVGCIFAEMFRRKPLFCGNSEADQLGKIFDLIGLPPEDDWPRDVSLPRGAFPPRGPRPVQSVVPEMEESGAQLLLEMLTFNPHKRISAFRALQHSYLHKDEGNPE
T1 sequence (P24385 whole entry partner): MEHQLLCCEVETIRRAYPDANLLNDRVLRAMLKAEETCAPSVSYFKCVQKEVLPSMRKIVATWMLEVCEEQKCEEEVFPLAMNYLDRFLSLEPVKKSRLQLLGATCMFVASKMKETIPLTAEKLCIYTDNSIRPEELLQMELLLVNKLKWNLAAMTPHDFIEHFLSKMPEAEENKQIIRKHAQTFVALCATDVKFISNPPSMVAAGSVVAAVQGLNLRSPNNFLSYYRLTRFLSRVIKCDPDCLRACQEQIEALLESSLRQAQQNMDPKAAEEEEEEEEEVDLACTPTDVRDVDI
Experimental: The compounds were tested in an in vitro kinase assay in 96 well format using Scintillation Proximity Assay (SPA-obtained from Amersham) for measuring incorporation of [γ-33-P]-Adenosine Triphosphate into a test substrate (GST-Retinoblastoma). In each well was placed the compound to be tested (diluted in DMSO and water to correct concentrations) and in control wells either p16 as an inhibitor control or DMSO as a positive control.
Approximately 0.5 μl of CDK4/Cyclin D1 partially-purified enzyme (amount dependent on enzyme activity) diluted in 25 μl incubation buffer was added to each well then 20 μl of GST-Rb/ATP/ATP33 mixture (containing 0.5 μg GST-Rb and 0.2 μM ATP and 0.14 μCi [γ-33-P]-Adenosine Triphosphate), and the resulting mixture shaken gently, then incubated at room temperature for 60 minutes. […]
The plates were sealed with Topseal-S plate sealers, left for two hours then spun at 2500 rpm, 1124×g., for 5 minutes. The plates were read on a Topcount for 30 seconds per well. […]
E.coli paste was resuspended in 10 ml/g of NETN buffer (50 mM Tris pH 7.5, 120 mM NaCl, 1 mM EDTA, 0.5% v/v NP-40, 1 mM PMSF, 1 ug/ml leupeptin, 1 ug/ml aprotinin and 1 ug/ml pepstatin) and sonicated for 2×45 seconds per 100 ml homogenate. […] The final product was analysed by Sodium Dodeca Sulfate (SDS) PAGE (Polyacrylamide gel) using 8-16% Tris-Glycine gels (Novex, San Diego, USA). […]

[1] = molecular target: T2, human Focal Adhesion Kinase (FAK) (Homo sapiens, UniProt Q05397); experiment: FAK3 Kinase Inhibition Assay; type: biochemical; settings: in vitro enzyme assay; read-out: FAK inhibitory activity IC50
T2 construct: FAK (full length human cDNA described by Andre et al); made in house; host or cells: Sf21 insect cells (baculovirus, pFastbac 1)
T2 sequence (Q05397 whole entry): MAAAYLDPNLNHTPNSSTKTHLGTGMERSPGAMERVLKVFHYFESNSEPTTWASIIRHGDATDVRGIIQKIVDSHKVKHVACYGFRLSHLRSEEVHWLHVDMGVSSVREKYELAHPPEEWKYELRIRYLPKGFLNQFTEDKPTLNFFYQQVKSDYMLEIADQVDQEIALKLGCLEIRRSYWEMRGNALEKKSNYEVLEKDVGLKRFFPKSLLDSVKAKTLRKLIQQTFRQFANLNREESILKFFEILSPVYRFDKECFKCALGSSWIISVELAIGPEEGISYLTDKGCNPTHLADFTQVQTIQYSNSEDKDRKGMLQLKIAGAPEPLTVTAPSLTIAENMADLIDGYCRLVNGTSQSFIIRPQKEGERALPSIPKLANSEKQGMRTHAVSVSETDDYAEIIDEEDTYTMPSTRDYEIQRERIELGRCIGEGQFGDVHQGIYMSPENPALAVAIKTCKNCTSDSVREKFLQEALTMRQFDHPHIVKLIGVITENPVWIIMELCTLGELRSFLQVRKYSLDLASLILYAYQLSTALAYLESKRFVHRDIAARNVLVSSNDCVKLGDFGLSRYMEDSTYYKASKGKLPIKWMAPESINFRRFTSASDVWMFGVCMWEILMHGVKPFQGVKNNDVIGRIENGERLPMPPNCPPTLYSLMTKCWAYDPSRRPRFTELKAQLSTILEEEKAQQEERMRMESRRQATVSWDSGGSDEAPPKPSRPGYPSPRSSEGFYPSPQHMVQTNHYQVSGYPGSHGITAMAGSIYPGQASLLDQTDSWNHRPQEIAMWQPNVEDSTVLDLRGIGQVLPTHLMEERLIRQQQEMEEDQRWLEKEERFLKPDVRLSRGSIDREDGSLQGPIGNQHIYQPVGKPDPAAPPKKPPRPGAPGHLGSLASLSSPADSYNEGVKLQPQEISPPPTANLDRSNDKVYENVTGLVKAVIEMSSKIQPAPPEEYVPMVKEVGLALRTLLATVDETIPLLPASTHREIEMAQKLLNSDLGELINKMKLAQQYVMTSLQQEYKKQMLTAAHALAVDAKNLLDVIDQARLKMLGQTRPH
From the text: FAK3 Kinase Inhibition Assay
This assay determines the ability of a test compound to inhibit tyrosine kinase activity of human Focal Adhesion Kinase (FAK).
DNA encoding FAK is obtained by total gene synthesis (Edwards M, International Biotechnology Lab 5(3), 19-25, 1987) or by cloning. These are then expressed in a suitable expression system to obtain polypeptide with tyrosine kinase activity.
Active FAK protein has been previously expressed in a baculovirus system using a similar N-terminal 6-histidine tag (Protein Expression And Purification, 1996, 7: 12-18). The human FAK cDNA was cloned into the baculovirus transplacement vector, pFastbac 1 (Life Technologies), and the recombinant construct was co-transfected into insect cells (for example Spodoptera frugiperda 21(Sf21)) with viral DNA to prepare recombinant baculovirus (details of the methods for the assembly of recombinant DNA molecules and the preparation and use of recombinant baculovirus can be found in standard texts for example Sambrook et al, 1989, Molecular cloning—A Laboratory Manual, 2nd edition, Cold Spring Harbour Laboratory Press and O'Reilly et al, 1992, Baculovirus Expression Vectors—A Laboratory Manual, W. H. Freeman and Co, New York. Details specific to the use of the pFastbac (‘Bac to Bac’) system are provided in Anderson et al., 1995, FOCUS (Life Technologies Bulletin Magazine), 17, p53.) […]

Row | Compound | pIC50 (CDK4/Cyclin D1) | pIC50 [1]
1 | CN(C)CC(O)COc1ccc(Nc2ncc(Br)c(Nc3ccccc3)n2)cc1 (racemic) [Example 3, 4-anilino-5-bromo-2-{4-[3-(N,N-dimethyl)amino-2-hydroxypropoxy]anilino}pyrimidine] | 7.15 | 
2 | Cc1ccc(F)c(Nc2nc(Nc3ccc(OCC(O)CN(C)C)cc3)ncc2Br)c1 (stereo not shown) [Example 5, 2-{4-[3-(N,N-Dimethyl)amino-2-hydroxy-propoxy]anilino}-4-(2-fluoro-5-methylanilino)-5-bromo-pyrimidine] | 7.70 | 
3 | CN(C)CC(O)COc1ccc(Nc2ncc([N+](=O)[O-])c(Nc3ccccc3F)n2)cc1 (stereo not shown) [Example 6] |  | 7.49
4 | CC(C)NCCCNc1ccc(Nc2ncc(Br)c(Nc3ccccn3)n2)cc1 [Example 220] |  | 7.15
